In paper PMC6656724 (Communications Biology, 2019):
Like-named read-outs stand apart in the source and are kept apart here.

How the values were obtained:
[1] = Mouse brain penetration study; assay type: in vivo, female C57BL6 mice; conditions: mouse, 1 mg/kg i.v.; for In blood / In brain: single mice, analyte inhibitor 1 (also after prodrugs) or 1h
Method: Inhibitor 1 (and prodrugs 1a, 1b, 1c and 1d) was dosed as a bolus solution intravenously at 1 mg free base/kg (dose volume: 5 mL/kg; dose vehicle: 5% DMSO; 95% saline (inhibitor 1) or 5% DMSO; 40% PEG400; 55% MilliQ H2O (prodrugs 1a, 1b, 1c and 1d)) to female C57BL6 mice (n = 6). At 5 min and 60 min following intravenous bolus injection of test compound, mice (n = 3/timepoint) were placed under terminal anaesthesia with isofluorane. A blood sample was taken by cardiac puncture, the […] decapitated and the brain removed. Brain weight was noted and each brain homogenised with two volumes of methanol (2 mL/g brain). Each blood sample was diluted with distilled water (1:10). Diluted blood and the brain homogenates were then stored frozen until preparation and analysis by UPLC-MS/MS. For each mouse at each timepoint for 1, the concentration in brain (ng/g) was divided by the concentration in blood (ng/mL) to give a brain:blood ratio. The mean value obtained was quoted. For prodrugs 1a to 1d, only the concentration of 1 in blood (ng/mL) and brain (ng/g) was reported.
A rapid and sensitive ultra-performance chromatography/tandem mass spectrometry (UPLC-MS/MS) method was developed and validated for the determination of inhibitor 1 and prodrug 1b (rat only). Chromatographic analysis was conducted on a Waters Acquity™ UPLC system. Chromatographic separation was performed with an Acquity™ UPLC BEH C18 column (50 × 2.1 mm, 1.7 µm, 130Å; Waters Corp.) maintained at 40 °C in a column oven. The mobile phase consisted of water with 0.01% formic acid and ACN with 0.01 % formic acid and it was delivered at a flow rate of 0.6 mL/min under gradient eluent conditions within an analysis cycle time of 3 min. The mass detection was conducted on a Waters Xevo™ TQs mass spectrometer equipped with a ScanWave™ technology. Quantitation of the analyte was performed in electrospray positive ionisation mode (ESI^+) using multiple reaction monitoring. The optimised fragmentation transition was m/z = 270.17 → 196.19 (mouse) or m/z = 270.17 → 223.76 (rat) for inhibitor 1 and m/z = 297.83 → 195.74 for prodrug 1b (rat).
Sample extraction for blood and brain homogenate was by protein precipitation (1:3 or 1:6) using ACN containing suitable internal standard. Extracts were vortexed followed by centrifugation (2800 rpm for 10 min). An aliquot of each supernatant was then diluted two-fold in distilled water ready for analysis by UPLC-MS/MS.
The weighted 1/x^2 calibration line was linear in the dynamic range of 1–5000 ng/mL for inhibitor 1 and 1–1000 ng/mL for prodrug 1b with a correlation coefficient (r^2) > 0.99 (inhibitor 1) or 0.98 (prodrug 1b). The quality control samples (QC) were prepared by using the same spiking scheme as the calibration samples and up to four different target concentration brain levels: 2 ng/mL (LQC), 40 ng/mL (MQC), 100 ng/mL (HQC) and 2000 ng/mL. Data collection, peak integration and calculations were performed using MassLynx software, version 2.1.

in vitro = in vitro ADME, canine; conditions: dog; for Papp A→B at 1 h, 10 µM / Papp B→A at 1 h, 10 µM / recovery at 1 h, 10 µM: MDCK; for efflux ratio at 1 h, 10 µM: pH 7.4, wild type MDCK, Papp B>A / Papp A>B
Method: (§1) internal standard at each timepoint. […]
(§2) including an analytical internal standard.
(§3) Apparent permeability (Papp) values were determined from the relationship: […]
(§4) Where V is the volume of each Transwell compartment (apical 125 µL, basolateral 600 µL), and concentrations are the relative MS responses for compound (normalized to internal standard) in the donor chamber before incubation and acceptor chamber at the end of the incubation. Area = area of cells exposed for drug transfer (0.33 cm 2).
(§5) Efflux ratios (Papp B>A / Papp A>B) were calculated for each compound from the […]
(§6) MDR1-MDCK cell line has been engineered to overexpress the efflux transporter, MDR1 (P-glycoprotein), and a finding of good permeability B>A, but poor […]
(§7) order to confirm the involvement of MDR1 in any efflux seen, an “ef fective efflux ratio” (EER) was calculated by comparing compound efflux ratios (ER) in the two cell types, i.e. EER = ER (MDR1-MDCK)/ ER (wild-type MDCK). This ratio illustrates the effect of the over-expressed MDR1 normalised for the background movement of compound through the wild-type cells.
(§8) Lucifer Yellow (LY) was added to the apical buffer in all wells to assess viability of the cell layer. As LY cannot freely permeate lipophilic barriers, a high degree of LY […]
(§9) validity of other wells on the plate.
(§10) Compound recovery from the wells was determined from MS responses (normalized to internal standard) in donor and acceptor chambers at the end of incubation compared to response in the donor chamber pre-incubation.

MDR1 (P-glycoprotein) = test: in vitro; assay type: in vitro ADME, canine; conditions: dog; for efflux ratio at 1 h, 10 µM: pH 7.4, MDR1 MDCK, Papp B>A / Papp A>B
Method: as §1, §2, §3, §4, §5, §6, §7, §8, §9, §10

[2] = pH 7.4, Papp A>B n=1, wild type MDCK
[3] = pH 7.4, Papp A>B n=2, wild type MDCK
[4] = pH 7.4, Papp B>A n=1, wild type MDCK
[5] = pH 7.4, Papp B>A n=2, wild type MDCK
[6] = pH 7.4, wild type MDCK, read-out: Papp A>B Mean
[7] = pH 7.4, wild type MDCK, read-out: Papp B>A Mean
[8] = pH 7.4, wild type MDCK, read-out: Recovery A>B Mean
[9] = pH 7.4, wild type MDCK, read-out: Recovery A>B n=1
[10] = pH 7.4, wild type MDCK, read-out: Recovery A>B n=2
[11] = pH 7.4, wild type MDCK, read-out: Recovery B>A Mean
[12] = pH 7.4, wild type MDCK, read-out: Recovery B>A n=1
[13] = pH 7.4, wild type MDCK, read-out: Recovery B>A n=2
[14] = MDCK-MDR1, pH 7.4, MDR1 MDCK, read-out: Papp A>B Mean
[15] = MDCK-MDR1, pH 7.4, MDR1 MDCK, read-out: Papp B>A Mean
[16] = MDCK-MDR1, pH 7.4, MDR1 MDCK, read-out: Recovery A>B Mean
[17] = MDCK-MDR1, pH 7.4, MDR1 MDCK, read-out: Recovery A>B n=1
[18] = MDCK-MDR1, pH 7.4, MDR1 MDCK, read-out: Recovery A>B n=2
[19] = MDCK-MDR1, pH 7.4, MDR1 MDCK, read-out: Recovery B>A Mean
[20] = MDCK-MDR1, pH 7.4, MDR1 MDCK, read-out: Recovery B>A n=1
[21] = MDCK-MDR1, pH 7.4, MDR1 MDCK, read-out: Recovery B>A n=2
[22] = MDCK-MDR1, pH 7.4, Papp A>B n=1, MDR1 MDCK
[23] = MDCK-MDR1, pH 7.4, Papp A>B n=2, MDR1 MDCK
[24] = MDCK-MDR1, pH 7.4, Papp B>A n=1, MDR1 MDCK
[25] = MDCK-MDR1, pH 7.4, Papp B>A n=2, MDR1 MDCK

Structure (SMILES) | Papp A→B at 1 h, 10 µM (in vitro; [2]) | Papp A→B at 1 h, 10 µM (in vitro; [3]) | Papp B→A at 1 h, 10 µM (in vitro; [4]) | Papp B→A at 1 h, 10 µM (in vitro; [5]) | Papp A→B at 1 h, 10 µM (in vitro; [6]) | Papp B→A at 1 h, 10 µM (in vitro; [7]) | recovery at 1 h, 10 µM (in vitro; [8]) | recovery at 1 h, 10 µM (in vitro; [9]) | recovery at 1 h, 10 µM (in vitro; [10]) | recovery at 1 h, 10 µM (in vitro; [11]) | recovery at 1 h, 10 µM (in vitro; [12]) | recovery at 1 h, 10 µM (in vitro; [13]) | efflux ratio at 1 h, 10 µM (in vitro) | Papp A→B at 1 h, 10 µM (MDR1 (P-glycoprotein); [14]) | Papp B→A at 1 h, 10 µM (MDR1 (P-glycoprotein); [15]) | recovery at 1 h, 10 µM (MDR1 (P-glycoprotein); [16]) | recovery at 1 h, 10 µM (MDR1 (P-glycoprotein); [17]) | recovery at 1 h, 10 µM (MDR1 (P-glycoprotein); [18]) | recovery at 1 h, 10 µM (MDR1 (P-glycoprotein); [19]) | recovery at 1 h, 10 µM (MDR1 (P-glycoprotein); [20]) | further results
COC(=O)CN1C(=O)COc2cc(C)c(Cl)c(C)c21 [1a] |  |  |  |  |  |  |  |  |  |  |  |  |  |  |  |  |  |  |  |  | In blood ([1]; 5 min, listed as prodrug 1a, 1 mg/kg): ≤ LLoQ
Cc1cc2c(c(C)c1Cl)N(CC(=O)OC(C)C)C(=O)CO2 [1c] |  |  |  |  |  |  |  |  |  |  |  |  |  |  |  |  |  |  |  |  | In brain ([1]; 60 min): ≤ LLoQ
Cc1cc2c(c(C)c1Cl)N(Cc1nn[nH]n1)C(=O)CO2 [1h, 6-chloro-5,7-dimethyl-4-(2H-tetrazol-5-ylmethyl)-1,4-benzoxazin-3-one] |  |  |  |  |  |  |  |  |  |  |  |  |  |  |  |  |  |  |  |  | Blood levels lower than those observed for 1 [1]: ~ 50%; Brain penetrance (in words) [1]: very limited brain penetrance; In blood ([1]; 60 min): ≤ LLoQ; In brain ([1]; 60 min): ≤ LLoQ
Oc1ccc(-c2csc3nc(-c4ccccc4)nn23)c(O)c1 [compound 3, 4-(2-phenyl[1,2,4]triazolo[5,1-b][1,3]thiazol-6-yl)benzene-1,3-diol] | 2.7 ×10⁻⁶ cm/s | 3.9 ×10⁻⁶ cm/s | 2.7 ×10⁻⁶ cm/s | 3.2 ×10⁻⁶ cm/s | 3.3 ×10⁻⁶ cm/s | 2.95 ×10⁻⁶ cm/s | 15% | 15% | 15% | 49% | 50% | 48% | 0.89 | 3.25 ×10⁻⁶ cm/s | 4.95 ×10⁻⁶ cm/s | 18% | 15% | 21% | 49.5% | 51% | recovery at 1 h, 10 µM (MDR1 (P-glycoprotein); [21]): 48%; Papp A→B at 1 h, 10 µM (MDR1 (P-glycoprotein); [22]): 2.9 ×10⁻⁶ cm/s; Papp A→B at 1 h, 10 µM (MDR1 (P-glycoprotein); [23]): 3.6 ×10⁻⁶ cm/s; Papp B→A at 1 h, 10 µM (MDR1 (P-glycoprotein); [24]): 4.9 ×10⁻⁶ cm/s; Papp B→A at 1 h, 10 µM (MDR1 (P-glycoprotein); [25]): 5 ×10⁻⁶ cm/s; efflux ratio at 1 h, 10 µM (MDR1 (P-glycoprotein)): 1.5
Cn1c(C(=O)N[C@@H](C(=O)O)c2ccccc2)cc2cc(F)ccc21 [compound 5, (R)-2-(5-fluoro-1-methyl-1H-indole-2-carboxamido)-2-phenylacetic acid] | 2.6 ×10⁻⁶ cm/s | 2.1 ×10⁻⁶ cm/s | 1.6 ×10⁻⁶ cm/s | 1.4 ×10⁻⁶ cm/s | 2.35 ×10⁻⁶ cm/s | 1.5 ×10⁻⁶ cm/s | 81% | 81% | 81% | 83.5% | 86% | 81% | 0.62 | 2.6 ×10⁻⁶ cm/s | 2.25 ×10⁻⁶ cm/s | 83% | 87% | 79% | 81.5% | 80% | recovery at 1 h, 10 µM (MDR1 (P-glycoprotein); [21]): 83%; Papp A→B at 1 h, 10 µM (MDR1 (P-glycoprotein); [22]): 2.8 ×10⁻⁶ cm/s; Papp A→B at 1 h, 10 µM (MDR1 (P-glycoprotein); [23]): 2.4 ×10⁻⁶ cm/s; Papp B→A at 1 h, 10 µM (MDR1 (P-glycoprotein); [24]): 2.4 ×10⁻⁶ cm/s; Papp B→A at 1 h, 10 µM (MDR1 (P-glycoprotein); [25]): 2.1 ×10⁻⁶ cm/s; efflux ratio at 1 h, 10 µM (MDR1 (P-glycoprotein)): 0.88
CC(CSc1ccc(Cl)cc1)C(=O)O (stereo not drawn) [compound 6, 3-[(4-chlorophenyl)thio]-2-methylpropanoic acid] | 33 ×10⁻⁶ cm/s | 41 ×10⁻⁶ cm/s | 51 ×10⁻⁶ cm/s | 50 ×10⁻⁶ cm/s | 37 ×10⁻⁶ cm/s | 50.5 ×10⁻⁶ cm/s | 66% | 57% | 75% | 93.5% | 98% | 89% | 1.36 | 50.5 ×10⁻⁶ cm/s | 41.5 ×10⁻⁶ cm/s | 82% | 68% | 96% | 80% | 93% | recovery at 1 h, 10 µM (MDR1 (P-glycoprotein); [21]): 67%; Papp A→B at 1 h, 10 µM (MDR1 (P-glycoprotein); [22]): 40 ×10⁻⁶ cm/s; Papp A→B at 1 h, 10 µM (MDR1 (P-glycoprotein); [23]): 61 ×10⁻⁶ cm/s; Papp B→A at 1 h, 10 µM (MDR1 (P-glycoprotein); [24]): 51 ×10⁻⁶ cm/s; Papp B→A at 1 h, 10 µM (MDR1 (P-glycoprotein); [25]): 32 ×10⁻⁶ cm/s; efflux ratio at 1 h, 10 µM (MDR1 (P-glycoprotein)): 0.81
